Earlier results as cited in US20050129719A1, “Concentrated emulsion formulation for silatecan” (priority 2003, published 2005).

For `CC[C@@]1(O)C(=O)OCc2c1cc1n(c2=O)Cc2c-1nc1ccc(O)cc1c2[Si](C)(C)C(C)(C)C` [Silatecan, 7-t-butyldimethylsilyl-10-hydroxycamptothecin], the water-solubility is listed as “extremely low water-solubility”.
